How the values were obtained:
[1] = Human metabolic stability half-life assay (liver microsomes); assay type: in vitro ADME; settings: pH 7.4, human liver microsomes, CYP-mediated (NADPH-dependent), 0.5 μM compound, 45-minute time course, read-out: HLM (t1/2, min)
Protocol: Metabolic Stability Half-Life Panel
Result Interpretation Guideline
Incubation with Liver Microsomes
Sample Analysis—Instrumentation

human Notch 3 = assay: Notch-CBF1 Transactivation Assay (luciferase reporter, transfected HeLa cells), Notch 3; assay type: cell-based; settings: read-out: Notch 3 (IC50); HeLa cells transfected with truncated Notch 3 and CBF1 luciferase reporter, 18 hours incubation
Description: (§1) Notch-CBF1 Transactivation Assay
(§2) The Notch-CBF1 (C-promoter binding factor I) cell based transactivation assay is based on the ability of the released Notch intracellular domain fragments (NICDs) to function as transcription factors in conjunction with CBF1 and other nuclear factors. Luciferase assays were used to measure the antagonism of Notch-CBF1 transcriptional activity. HeLa cervical cancer cells are transiently co-transfected with pCDNA3.1/Hygro plasmids containing truncated Notch 1, Notch 2, Notch 3, or Notch 4 receptors and a PGL3 luciferase reporter vector containing 4 copies of CBF1 binding site. The cells were then tested for Notch-CBF1 activity in the absence or presence of test compounds. HeLa cells, maintained in DMEM (high glucose with HEPES), 1× glutamine/penicillin/streptomycin and 10% Fetal Bovine serum, were transiently transfected in a T175 Flask (4.5×10^6 cells/flask) using the Monster Transfection Kit (Minis #MIR2906) according to manufacturers specifications. Table 2 denotes respective DNA quantity for the transfections.
(§3) Assay media (5 μL) containing test compounds in final concentrations ranging from 5 μM to 8.4×10^−5 μM (3 fold serial dilutions) were added to the cells and the cell plates were then incubated for 18 hours at 37° C. and 5% CO2. Control wells contained DMSO vehicle (total counts) or 0.5 μM of an in-house small molecule inhibitor (background counts). Duplicates were used for each sample. Luciferase activity was measured after a 20-minute incubation with 50 μl STEADY-GLO® luciferase reagents according to manufacturer's specifications (Promega, Cat. #E2550) and analyzed by Envision plate reader (PerkinElmer, Boston, Mass.).
(§4) The antagonist effect of compounds was expressed as 100×[1−(average sample−average background)/(average total−average background)] where sample is the luciferase activity in the presence of test compound, background is equal to the luciferase activity in the presence of the small molecule inhibitor control and the total is signal induced in DMSO wells.

human Notch 1 = assay: Notch-CBF1 Transactivation Assay (luciferase reporter, transfected HeLa cells), Notch 1; assay type: cell-based; settings: read-out: Notch 1 (IC50); HeLa cells transfected with truncated Notch 1 and CBF1 luciferase reporter, 18 hours incubation
Description: as §1, §2, §3, §4

TALL-1 = assay: Human Tumor Xenograft Models in Mice, TALL-1; assay type: in vivo; settings: for Antitumor Activity in TALL-1 (LCK), BID dosing: oral, BID × 10, TALL-1 xenograft in NOD-SCID mice; for antitumor activity with oral administration (PO): Human Tumor Xenograft Models in mice
Protocol: Human Tumor Xenograft Models in Mice
Mice were fed food and water ad libitum.
Preclinical Chemotherapy Trials
When death occurred, the day of death was recorded.
In Vivo Antitumor Activity

[2] = High Throughput (HT) Metabolic Stability Panel, rat microsomes; assay type: in vitro ADME; settings: ten-minute incubation, control compound expected values
Protocol: (§5) High Throughput (HT) Metabolic Stability Panel
(§6) Each compound was tested in duplicate.
(§7) Methods and Materials Incubation with Liver Microsomes
(§8) Peak integration was performed with the XCALIBUR® software.
(§9) A set of three compounds was tested along with the test compound in each assay plate.

[3] = High Throughput (HT) Metabolic Stability Panel, monkey microsomes; assay type: in vitro ADME; settings: ten-minute incubation, control compound expected values
Protocol: as §5, §6, §7, §8, §9

[4] = High Throughput (HT) Metabolic Stability Panel, human microsomes; assay type: in vitro ADME; settings: ten-minute incubation, control compound expected values
Protocol: as §5, §6, §7, §8, §9

[5] = High Throughput (HT) Metabolic Stability Panel, dog microsomes; assay type: in vitro ADME; settings: ten-minute incubation, control compound expected values
Protocol: as §5, §6, §7, §8, §9

[6] = High Throughput (HT) Metabolic Stability Panel, mouse microsomes; assay type: in vitro ADME; settings: ten-minute incubation, control compound expected values
Protocol: as §5, §6, §7, §8, §9

Compound | half-life at 0.5 μM [1] | IC50 (human Notch 3) | IC50 (human Notch 1) | antitumor activity with oral administration (PO) (TALL-1) | further results
Cc1cccc2c1NC(=O)[C@@H](NC(=O)[C@H](CCC(F)(F)F)[C@@H](C(N)=O)c1ccccc1)N=C2c1cccc(F)c1 [Example 5, (2R,3R)—N1-((S)-5-(3-Fluorophenyl)-9-methyl-2-oxo-2,3-dihydro-1H-benzo[e][1,4]diazepin-3-yl)-3-phenyl-2-(3,3,3-trifluoropropyl)succinamide] | ≥ 30 min | 14.2 nM | – | – | –
NC(=O)[C@@H](c1cccnc1)[C@@H](CCC(F)(F)F)C(=O)N[C@H]1N=C(c2ccccc2)c2ccccc2NC1=O [Example 10, (2R,3R)—N1-((S)-2-Oxo-5-phenyl-2,3-dihydro-1H-benzo[e][1,4]diazepin-3-yl)-3-(pyridin-3-yl)-2-(3,3,3-trifluoropropyl)succinamide] | – | 22.9 nM | 19.3 nM | – | –
NC(=O)[C@@H](c1ccccc1)[C@@H](CCC(F)(F)F)C(=O)N[C@H]1N=C(c2ccccc2)c2ccccc2N(c2ccc(Cl)cn2)C1=O [Example 22, (2R,3R)—N-((3S)-1-(5-Chloro-2-pyridinyl)-2-oxo-5-phenyl-2,3-dihydro-1H-1,4-benzodiazepin-3-yl)-3-phenyl-2-(3,3,3-trifluoropropyl)succinamide] | – | 11.6 nM | 16 nM | – | –
Cc1nocc1[C@H](C(N)=O)[C@@H](CCC(F)(F)F)C(=O)N[C@H]1N=C(c2ccccc2)c2ccccc2N(c2ccc(Cl)cn2)C1=O [Example 23, (2R,3R)—N-((3S)-1-(5-Chloro-2-pyridinyl)-2-oxo-5-phenyl-2,3-dihydro-1H-1,4-benzodiazepin-3-yl)-3-(3-methyl-4-isoxazolyl)-2-(3,3,3-trifluoropropyl)succinamide] | ≥ 30 min | 13.7 nM | 15.4 nM | – | –
COc1cc(C#N)cc2c1NC(=O)[C@@H](NC(=O)[C@H](CCC(F)(F)F)[C@@H](C(N)=O)c1ccccc1)N=C2c1ccccc1 [Example 25, (2R,3R)—N1-((S)-7-Cyano-9-methoxy-2-oxo-5-phenyl-2,3-dihydro-1H-benzo[e][1,4]diazepin-3-yl)-3-phenyl-2-(3,3,3-trifluoropropyl)succinamide] | – | 19.1 nM | 24.2 nM | – | –
NC(=O)[C@@H](c1ccccc1)[C@@H](CCC(F)(F)F)C(=O)N[C@H]1N=C(c2ccccc2)c2cccc(OC3CC3)c2NC1=O [Example 26, (2R,3R)—N1-((S)-9-Cyclopropoxy-2-oxo-5-phenyl-2,3-dihydro-1H-benzo[e][1,4]diazepin-3-yl)-3-phenyl-2-(3,3,3-trifluoropropyl)succinamide] | ≥ 30 min | – | – | showed antitumor activity | Antitumor Activity in TALL-1 (LCK), BID dosing (TALL-1; Dose 10 (unit not given)): 1.4 LCK
Cc1cccc2c1NC(=O)[C@@H](NC(=O)[C@H](CCC(F)(F)F)[C@@H](C(N)=O)c1ccccc1)N=C2c1ccccc1 [Example 30, (2R,3R)—N1-((S)-9-Methyl-2-oxo-5-phenyl-2,3-dihydro-1H-benzo[e][1,4]diazepin-3-yl)-3-phenyl-2-(3,3,3-trifluoropropyl)succinamide] | ≥ 30 min | – | – | showed antitumor activity | Antitumor Activity in TALL-1 (LCK), BID dosing (TALL-1; Dose 20 (unit not given)): 1.2 LCK
Cc1cccc2c1NC(=O)[C@@H](NC(=O)[C@H](CCC(F)(F)F)[C@@H](C(N)=O)c1ccccc1)N=C2c1cccc(Cl)c1 [Example 31, (2R,3R)—N1-((S)-5-(3-Chlorophenyl)-9-methyl-2-oxo-2,3-dihydro-1H-benzo[e][1,4]diazepin-3-yl)-3-phenyl-2-(3,3,3-trifluoropropyl)succinamide] | ≥ 30 min | – | – | showed antitumor activity | –
Cc1cccc2c1NC(=O)[C@@H](NC(=O)[C@H](CCC(F)(F)F)[C@@H](C(N)=O)c1conc1C)N=C2c1ccc(F)cc1 [Example 33, (2R,3R)—N1-((S)-5-(4-Fluorophenyl)-9-methyl-2-oxo-2,3-dihydro-1H-benzo[e][1,4]diazepin-3-yl)-3-(3-methylisoxazol-4-yl)-2-(3,3,3-trifluoropropyl)succinamide] | ≥ 30 min | 11.5 nM | 19 nM | – | –
CCc1nn(CCCN2CCN(c3cccc(Cl)c3)CC2)c(=O)n1CCOc1ccccc1 [Nefazodone] | – | – | – | – | Average Percent Remaining ± SD, Rat [2]: 0.7 ± 0.6%; Average Percent Remaining ± SD, Monkey [3]: 0.6 ± 0.5%; Average Percent Remaining ± SD, Human [4]: 0.4 ± 0.4%; Average Percent Remaining ± SD, Dog [5]: 0.4 ± 0.4%; Average Percent Remaining ± SD, Mouse [6]: 0.4 ± 0.3%

— patent publication US9133139B2, “Fluoroalkyl-1,4-benzodiazepinone compounds” (BRISTOL-MYERS SQUIBB COMPANY, priority 2012, dated 2015)
